Reference: patent US10251937B2, “Retro-inverso analogs of spadin display increased antidepressant effects” (MEDINCELL, priority 2014, dated 2019)
Ends that are not written are not given here.

Columns and labels:
[1] = target: T1, human two-pore domain potassium channel TREK-1 (Homo sapiens, UniProt O95069); conditions: Kennard et al; cited from earlier work
T1 sequence (O95069 1-426): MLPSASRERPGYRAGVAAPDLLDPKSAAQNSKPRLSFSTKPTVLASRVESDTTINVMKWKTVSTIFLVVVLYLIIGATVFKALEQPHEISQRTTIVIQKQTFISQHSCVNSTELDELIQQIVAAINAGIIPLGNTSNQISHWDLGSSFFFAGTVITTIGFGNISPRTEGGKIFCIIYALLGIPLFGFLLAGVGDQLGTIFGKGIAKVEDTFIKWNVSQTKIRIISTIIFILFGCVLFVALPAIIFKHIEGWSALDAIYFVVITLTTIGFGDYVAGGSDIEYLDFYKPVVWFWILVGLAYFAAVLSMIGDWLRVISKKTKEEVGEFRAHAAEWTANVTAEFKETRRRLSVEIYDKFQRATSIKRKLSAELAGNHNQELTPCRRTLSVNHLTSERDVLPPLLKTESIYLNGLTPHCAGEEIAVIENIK

dogs = dogs with separation anxiety; cited from earlier work
C57Bl/6J mice [2] = assay: Novelty Suppressed Feeding (NSF) test; assay type: in vivo; conditions: 10 μg/kg i.v. daily for 4 days, test on day 5
Procedure: (§1) Stock solutions were prepared of 2 mg/mL (10^-3M) in distilled water, and before injection spadin solution was diluted in NaCl 0.9% to obtain the different concentrations used for treatments. Corticosterone (Sigma-Aldrich, France) was dissolved in drinking water at the concentration of 3.5 mg/L in the presence of 4.5 g/L of beta-cyclodextrin. […] Fluoxetine (Sigma-Aldrich, France) was dissolved in drinking water at the dose of 80 mg/L and administered during 21 days. For i.p. administration, fluoxetine (TEVA Santé, France) was dissolved in NaCl 0.9% at a concentration of 0.75 mg/mL. The amount injected was 3 mg/kg. Spadin and analogues were administered by i.v. injection. For acute treatment, drugs were administered in a single 100 μL bolus 30 min prior to the beginning of the behavioral tests. For subchronic treatment drugs were injected during 4 consecutive days and behavioral tests were performed on day 5, without additional injection.
The NSF paradigm is a two day test protocol. Day one, mice were deprived from food. Day two mice were placed in a highly brightly lit area, in a plastic box (45×45×20 cm), with a floor covered with wooden bedding. The test was carried out during a 10 min period; during this time the latency to eat was measured. During the test a single pellet of food was placed in the center of the box, on a white platform.

[3] = tested on: dentate gyrus of the mouse hippocampus; assay: Hippocampal neurogenesis, BrdU-positive cell count; assay type: in vivo; conditions: 4 day treatment, 10 μg/kg i.v.
Procedure: One day after the injections of 5-bromo-2-deoxyuridine (BrdU), 12 mg per animal divided in four bolus of 100 μl injected every two hours with spadin or Analog 3 (SEQ ID NO:4) and Analog 8 (SEQ ID NO:9), mice were anesthetized with isoflurane and transcardially perfused with 20 mL of 0.9% NaCl followed by 20 mL paraformaldehyde in 4%/NaCl at a concentration of 0.9%. By using a vibratome (Leica) brains were cut in 40 μm sections, throughout the entire hippocampus. Eight slices, from bregma 3.3 to bregma 5.3, were retained to process the BrdU immunohistochemistry as previously described (Heurteaux, C. et al. Deletion of the background potassium channel TREK-1 results in a depression-resistant phenotype. Nat Neurosci 9, 1134, (2006)). For each BrdU labeling, slices were first incubated with a mouse monoclonal anti-BrdU antibody (1/8000, Becton Dinckinson). […]
It was previously shown that a 4-days subchronic treatment with spadin increased the hippocampal neurogenesis (Mazella, J. et al. Spadin, a sortilin-derived peptide, targeting rodent TREK-1 channels: a new concept in the antidepressant drug design. PLoS Biol 8, e1000355, (2010)). […] The neurogenesis in the dentate gyrus of the mouse hippocampus was analyzed by counting the number of progenitor cells that incorporated the DNA synthesis marker 5-bromo-2′deoxyuridine (BrdU).

C57Bl/6J mice [4] = assay: Forced Swimming Test (FST) in naive mice; assay type: in vivo
Procedure: Naïve male C57Bl/6J mice from 7 to 9 weeks old were used in all experiments (Janvier laboratory). Mice were housed 10 animals per cage under a 12-h light/12-h dark cycle (light on at 8:00 am), in a ventilated room at a temperature of 22±1° C. Animals had free access to water and food (A03; SAFE, Augy, France). All experiments were conducted according to policies on the care and use of laboratory animals of the Society for Neuroscience, and also with respect to national laws on animal use. The local Ethics Committee (CIEPAL) approved the experiments.
as §1
The animals were individually placed in a non-escapable cylinder (height 30 cm, diameter 15 cm) filled with 15 cm-water at 22±1° C. The trial was conducted for 6 min. The total period of immobility was manually measured during the last 4 min of the test. A mouse was considered immobile when it remained floating with only slight movements to keep its head above water.

Row | Compound | effect on human TREK-1 channel [1] | dogs less depressive as indicated by better behavior (dogs) | latency to feed, NSF (C57Bl/6J mice [2]) | number of BrdU-positive cells in the subgranular zone compared to saline [3] | immobility time, FST, acute treatment (C57Bl/6J mice [4]; 10 μg/kg acute i.v., measured 30 minutes after injection, n=10) | immobility time, FST, subchronic treatment (C57Bl/6J mice [4]; 10 μg/kg i.v. once a day for 4 days, test on day 5) | time of immobility, FST time course (C57Bl/6J mice [4]; 3 h after injection (order of listing)) | remaining efficiency, % of the initial efficacy, FST (C57Bl/6J mice [4]; 3 h after the injection) | time of immobility, FST time course (C57Bl/6J mice [4]; 7 h after injection (order of listing)) | time of immobility, FST time course (C57Bl/6J mice [4]; 17 h after injection (order of listing)) | reduction of immobility times, FST (C57Bl/6J mice [4]; after 17 h) | time of immobility, FST time course (C57Bl/6J mice [4]; first (initial) time point after injection, time not given) | remaining efficiency, % of the initial efficacy, FST (C57Bl/6J mice [4]; seven hours after the injection)
1 | CNCCC(Oc1ccc(C(F)(F)F)cc1)c1ccccc1 (stereo not shown) [fluoxetine] | inhibit | 73% | – | – | – | – | – | – | – | – | – | – | –
2 | APLPRWSGPIGVSWGLR [spadin, APLPRWSGPIGVSWGLR] | – | – | 151.11 ± 17.70 s | significantly increased | 107.40 ± 5.05 s | 123.70 ± 7.16 s | 113.2 ± 5.0 s | 84% | 150.8 ± 6.5 s | 175.3 ± 7.5 s | no reduction in the immobility times | 102.4 ± 6.2 s | 30%
